From patent US20240150377A1, “MODULATORS OF CYSTIC FIBROSIS TRANSMEMBRANE CONDUCTANCE REGULATOR” (VERTEX PHARMACEUTICALS INCORPORATED, priority 2020, published 2024)
Several values for one entry are separate records, joined by “and”; a condition that tells them apart may be missing. Identical values can stand only once. Like-named read-outs stand apart in the source and are kept apart here. One block for each compound: values may come before it.

How the values were obtained:
[1] = amide bond, 13-membered ring, DMF
CFTR = target: T1, CFTR (Homo sapiens, UniProt P13569, DEL508-508); test: HBE assay: Ussing chamber assay of CFTR-mediated short-circuit currents; assay type: cell-based; conditions: Table 10; for EC50: read-out: HBE EC50; for Emax: read-out: HBE Max activity (%)
T1 construct: endogenous in cells; host or cells: primary human bronchial epithelial cells from CF subjects (F508del/MF-HBE), differentiated at air-liquid interface
T1 sequence (P13569 with tags, fused parts or gaps DEL508-508): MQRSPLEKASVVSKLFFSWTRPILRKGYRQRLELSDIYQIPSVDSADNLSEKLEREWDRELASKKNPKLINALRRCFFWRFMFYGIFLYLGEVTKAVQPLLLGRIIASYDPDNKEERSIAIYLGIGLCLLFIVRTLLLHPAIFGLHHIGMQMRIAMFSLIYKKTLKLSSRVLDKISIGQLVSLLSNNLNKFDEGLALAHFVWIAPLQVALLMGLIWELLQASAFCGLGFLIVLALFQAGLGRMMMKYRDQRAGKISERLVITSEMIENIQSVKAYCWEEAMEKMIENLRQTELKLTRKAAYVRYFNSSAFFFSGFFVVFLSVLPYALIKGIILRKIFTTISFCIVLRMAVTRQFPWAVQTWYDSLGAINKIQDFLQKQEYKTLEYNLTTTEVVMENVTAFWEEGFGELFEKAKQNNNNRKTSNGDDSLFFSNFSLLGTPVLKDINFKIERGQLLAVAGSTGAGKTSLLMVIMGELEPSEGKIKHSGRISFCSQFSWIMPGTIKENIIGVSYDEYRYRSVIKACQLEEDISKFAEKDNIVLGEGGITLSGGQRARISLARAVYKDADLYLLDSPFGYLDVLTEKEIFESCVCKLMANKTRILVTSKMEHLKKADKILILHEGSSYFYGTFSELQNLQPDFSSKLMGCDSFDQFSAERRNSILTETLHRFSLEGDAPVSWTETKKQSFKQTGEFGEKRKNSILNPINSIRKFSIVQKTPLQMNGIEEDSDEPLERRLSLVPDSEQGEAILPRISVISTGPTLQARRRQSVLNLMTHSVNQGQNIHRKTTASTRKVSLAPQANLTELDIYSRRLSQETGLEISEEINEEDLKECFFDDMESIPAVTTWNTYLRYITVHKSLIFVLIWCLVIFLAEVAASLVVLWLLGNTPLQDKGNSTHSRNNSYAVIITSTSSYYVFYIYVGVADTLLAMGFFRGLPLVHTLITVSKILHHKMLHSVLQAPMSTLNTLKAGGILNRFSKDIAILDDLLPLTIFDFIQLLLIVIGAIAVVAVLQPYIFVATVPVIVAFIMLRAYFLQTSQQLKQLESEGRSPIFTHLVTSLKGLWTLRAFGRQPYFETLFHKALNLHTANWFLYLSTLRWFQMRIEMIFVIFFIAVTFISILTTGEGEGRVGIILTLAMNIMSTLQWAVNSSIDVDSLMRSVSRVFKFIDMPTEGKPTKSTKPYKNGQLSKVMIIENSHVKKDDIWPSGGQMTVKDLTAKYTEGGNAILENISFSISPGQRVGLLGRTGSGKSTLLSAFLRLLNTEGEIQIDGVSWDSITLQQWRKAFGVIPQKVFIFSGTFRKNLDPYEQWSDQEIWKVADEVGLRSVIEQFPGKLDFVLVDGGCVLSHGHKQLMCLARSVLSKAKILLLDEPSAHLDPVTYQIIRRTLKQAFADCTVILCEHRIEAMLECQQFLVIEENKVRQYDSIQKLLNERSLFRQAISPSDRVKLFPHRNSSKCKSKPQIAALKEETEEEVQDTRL
Outline: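 CFTR-mediated Isc (μA/cm²) equals the peak response to apical 20 μM forskolin minus the residual after a 20 μM each BPO/GlyH-101/CFTR inhibitor 172 cocktail, recorded in Ussing chambers at Vhold 0 mV, 37 °C, pH 7.4, with 30 μM apical amiloride. Cells were F508del/MF HBE cultures preincubated 18-24 h with corrector (concentration range or 10 μM) plus 1 μM ivacaftor in 20% human serum.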

EC50 (CFTR): < 1 µM
Emax (CFTR): > 60%
Structure (SMILES): Cc1cccc(C)c1-c1cc2nc(n1)NS(=O)(=O)c1cccc(c1)C(=O)N(Cc1ccc(N3CCOCC3)cn1)[C@H](CC1CC3(CCC3)C1)CO2 [Compound 3, (11R)-6-(2,6-Dimethylphenyl)-12-[(5-morpholino-2-pyridyl)methyl]-2,2-dioxo-11-(spiro[3.3]heptan-2-ylmethyl)-9-oxa-2λ^6-thia-3,5,12,19-tetrazatricyclo[12.3.1.14,8]nonadeca-1(18),4(19),5,7,14,16-hexaen-13-one]
ring closure, yield after HPLC ([1]; from Cc1cccc(C)c1-c1cc(OC[C@@H](CC2CC3(CCC3)C2)NCc2ccc(N3CCOCC3)cn2)nc(NS(=O)(=O)c2cccc(C(=O)O)c2)n1, CDMT/NMM, 25.0 °C, 2.5 h, 2 steps): 11%

EC50 (CFTR): < 1 µM
Emax (CFTR): > 60%
Structure (SMILES): Cc1cccc(C)c1-c1cc2nc(n1)NS(=O)(=O)c1cccc(c1)C(=O)N(Cc1ncc(N3CCOCC3)cc1N1CCOCC1)[C@H](CC(C)(C)C)CO2 [Compound 56, (11R)-6-(2,6-Dimethylphenyl)-11-(2,2-dimethylpropyl)-12-[(3,5-dimorpholino-2-pyridyl)methyl]-2,2-dioxo-9-oxa-2λ^6-thia-3,5,12,19-tetrazatricyclo[12.3.1.14,8]nonadeca-1(18),4(19),5,7,14,16-hexaen-13-one]
ring closure, yield after HPLC ([1]; from Cc1cccc(C)c1-c1cc(OC[C@@H](CC(C)(C)C)NCc2ncc(N3CCOCC3)cc2N2CCOCC2)nc(NS(=O)(=O)c2cccc(C(=O)O)c2)n1, CDMT/NMM, 25.0 °C, 2.5 h, 2 steps): 22%

Structure (SMILES): CCOC(=O)COc1ccc(CN2C(=O)c3cccc(c3)S(=O)(=O)Nc3nc(cc(-c4c(C)cccc4C)n3)OC[C@H]2CC(C)(C)C)nc1
ring closure, yield after HPLC ([1]; from CCOC(=O)COc1ccc(CN[C@@H](COc2cc(-c3c(C)cccc3C)nc(NS(=O)(=O)c3cccc(C(=O)O)c3)n2)CC(C)(C)C)nc1, HATU/DIEA, 29.1 mM, 25.0 °C, 4.0 h): 42%

Structure (SMILES): Cc1cccc(C)c1-c1cc2nc(n1)NS(=O)(=O)c1cccc(c1)C(=O)N(CCc1cccc(F)n1)[C@H](CC(C)(C)C)CO2
ring closure, yield after HPLC ([1]; from Cc1cccc(C)c1-c1cc(OC[C@@H](CC(C)(C)C)NCCc2cccc(F)n2)nc(NS(=O)(=O)c2cccc(C(=O)O)c2)n1, CDMT/NMM, 25.0 °C, 3.0 h, 2 steps): 6%

Structure (SMILES): Cc1cccc(C)c1-c1cc2nc(n1)NS(=O)(=O)c1cccc(c1)C(=O)N(CC1CCN(C(=O)OC(C)(C)C)CC1)[C@H](CC(C)(C)C)CO2
ring closure, yield after HPLC ([1]; from Cc1cccc(C)c1-c1cc(OC[C@@H](CC(C)(C)C)NCC2CCN(C(=O)OC(C)(C)C)CC2)nc(NS(=O)(=O)c2cccc(C(=O)O)c2)n1, CDMT/NMM, 25.0 °C, 3.5 h, 2 steps): 25%

Structure (SMILES): Cc1cccc(C)c1-c1cc2nc(n1)NS(=O)(=O)c1cccc(c1)C(=O)N(C[C@H]1COC(C)(C)O1)[C@H](CC(C)C)CO2
ring closure, yield after HPLC ([1]; from Cc1cccc(C)c1-c1cc(OC[C@@H](CC(C)C)NC[C@H]2COC(C)(C)O2)nc(NS(=O)(=O)c2cccc(C(=O)O)c2)n1, HATU/DIEA, 26.2 mM, 25.0 °C, 2.0 h, 2 steps): 12%

Structure (SMILES): Cc1cccc(C)c1-c1cc2nc(n1)NS(=O)(=O)c1cccc(c1)C(=O)N(Cc1ccc(I)cc1)[C@H](CC(C)(C)C)CO2
ring closure, yield after HPLC ([1]; from Cc1cccc(C)c1-c1cc(OC[C@@H](CC(C)(C)C)NCc2ccc(I)cc2)nc(NS(=O)(=O)c2cccc(C(=O)O)c2)n1, HATU/DIEA, 26.1 mM, 15.0 h): 32%

Structure (SMILES): CCOC(=O)CCCCN1C(=O)c2cccc(c2)S(=O)(=O)Nc2nc(cc(-c3c(C)cccc3C)n2)OC[C@H]1CC(C)(C)C
ring closure, yield after HPLC ([1]; from CCOC(=O)CCCCN[C@@H](COc1cc(-c2c(C)cccc2C)nc(NS(=O)(=O)c2cccc(C(=O)O)c2)n1)CC(C)(C)C, HATU/DIEA, 62.0 mM, 25.0 °C, 1.0 h): 66%

Structure (SMILES): COC(=O)C12CC(CN3C(=O)c4cccc(c4)S(=O)(=O)Nc4nc(cc(-c5c(C)cccc5C)n4)OC[C@H]3CC(C)(C)C)(C1)C2
ring closure, yield after HPLC ([1]; from COC(=O)C12CC(CN[C@@H](COc3cc(-c4c(C)cccc4C)nc(NS(=O)(=O)c4cccc(C(=O)O)c4)n3)CC(C)(C)C)(C1)C2, CDMT/NMM, 29.1 mM, 25.0 °C, 60.0 h): 27%

Structure (SMILES): Cc1cccc(C)c1-c1cc2nc(n1)N=S(N)(=O)c1cccc(c1)C(=O)N(Cc1ncc(N3CC(C)(C)C3)cn1)[C@H](CC(C)(C)C)CO2 (single isomer, unassigned; isomer b)
ring closure, yield after HPLC ([1]; from 3-[[[4-[(2R)-2-[[5-(3,3-dimethylazetidin-1-yl)pyrimidin-2-yl]methylamino]-4,4-dimethyl-pentoxy]-6-(2,6-dimethylphenyl)pyrimidin-2-yl]amino]sulfonimidoyl]benzoic acid (hydrochloride salt) isomer B, CDMT/NMM, 18.4 mM): 4%

Structure (SMILES): Cc1cccc(C)c1-c1cc2nc(n1)NS(=O)(=O)c1cccc(c1)C(=O)N(Cc1ccc(F)nc1)[C@H](CC(C)(C)C)CO2
ring closure, yield after HPLC ([1]; from Cc1cccc(C)c1-c1cc(OC[C@@H](CC(C)(C)C)NCc2ccc(F)nc2)nc(NS(=O)(=O)c2cccc(C(=O)O)c2)n1, CDMT/NMM, 25.0 °C, 5.0 h, 2 steps): 34%

Structure (SMILES): Cc1cccc(C)c1-c1cc2nc(n1)NS(=O)(=O)c1cccc(c1)C(=O)N(Cc1cccc(F)n1)[C@H](CC(C)(C)C)CO2
ring closure, yield after HPLC ([1]; from 3-[[4-(2,6-dimethylphenyl)-6-[(2R)-2-[(6-fluoro-2-pyridyl)methylamino]-4,4-dimethyl-pentoxy]pyrimidin-2-yl]sulfamoyl]benzoic acid (Dihydrochloride salt), CDMT/NMM, 25.2 mM): 66%

Structure (SMILES): Cc1cccc(C)c1-c1cc2nc(n1)NS(=O)(=O)c1cccc(c1)C(=O)N(Cc1ccccn1)[C@H](CC(C)(C)C)CO2
ring closure, yield after HPLC ([1]; from Cc1cccc(C)c1-c1cc(OC[C@@H](CC(C)(C)C)NCc2ccccn2)nc(NS(=O)(=O)c2cccc(C(=O)O)c2)n1, HATU/TEA, 20.2 mM, 16.0 h): 41%

Structure (SMILES): Cc1cccc(C)c1-c1cc2nc(n1)NS(=O)(=O)c1cccc(c1)C(=O)N(CCc1ccc(Br)cn1)[C@H](CC(C)(C)C)CO2
ring closure, yield after HPLC ([1]; from Cc1cccc(C)c1-c1cc(OC[C@@H](CC(C)(C)C)NCCc2ccc(Br)cn2)nc(NS(=O)(=O)c2cccc(C(=O)O)c2)n1, CDMT/NMM, 25.0 °C, 3.0 h, 2 steps): 15%

Structure (SMILES): Cc1cccc(C)c1-c1cc2nc(n1)NS(=O)(=O)c1cccc(c1)C(=O)N(Cc1cncc(N(C)C3CCC3)n1)[C@@H]1CN(C(=O)OC(C)(C)C)C[C@H]1O2
ring closure, yield after HPLC ([1]; from Cc1cccc(C)c1-c1cc(O[C@@H]2CN(C(=O)OC(C)(C)C)C[C@H]2NCc2cncc(N(C)C3CCC3)n2)nc(NS(=O)(=O)c2cccc(C(=O)O)c2)n1, CDMT/NMM, 24.3 mM, 15.1 h): 48%

Structure (SMILES): Cc1cccc(C)c1-c1cc2nc(n1)NS(=O)(=O)c1cccc(c1)C(=O)N(Cc1cncc(N3CCC[C@H]3C)n1)C(C1CC(C)(C)C1)CO2 (some centres unmarked)
ring closure, yield after HPLC ([1]; from Cc1cccc(C)c1-c1cc(OCC(NCc2cncc(N3CCC[C@H]3C)n2)C2CC(C)(C)C2)nc(NS(=O)(=O)c2cccc(C(=O)O)c2)n1, CDMT/NMM, 12.7 mM, 16.5 h): 18% and 17%
